# Results reported in US20070154393A1, “Bioassay for volatile low molecular weight insecticides and methods of use” (priority 2005, published 2007).
# Entries after “also recorded” stand apart in the source; their conditions may differ. Where a name gives a salt, the structure may show the parent alone. Read-outs that look alike come from different tables or passages of the source.
# Legend:
# [1] = tested on: insecticide-susceptible Drosophila melanogaster (Canton-S strain); assay type: in vivo; settings: in vivo
# Method: The insecticide-susceptible Canton-S strain of Drosophila was obtained from the Bloomington Drosophila stock center (Indiana University, Bloomington, Ind.), and used exclusively in all studies. Flies were reared in 100-ml vials capped with acetate plugs (Fisher Scientific; Suwannee, Ga.) on a JAZZ-MIX diet (Fisher) prepared with a 2:1 ratio of water to apple juice. Flies were reared on a 12:12 photocycle at 24° C. and ambient relative humidity. Mixed-sex adults, less than 1-wk old, were used in bioassays.
# Flies were briefly anesthetized in rearing vials with a pulse of CO2 and transferred to a CO2 flowbed (Genesee Scientific; San Diego, Calif.). Using a camel hair brush and a 5×5 cm sheet of rice paper, ten flies were placed into 7.0 ml dram vials. Prior to adding flies, each vial received a 0.5 cm^3 block of rearing diet that had been sufficiently dried on a paper towel to remove excessive moisture. The vials were then capped with open-top septum caps (Fisher) that were covered with fine mesh. The mesh was applied to the septum caps in advance using hot glue; it prevented fly escape but readily permitted gas exchange. The flies were allowed 1-hr to recover from the CO2 anesthesia. After one hour, single vials with flies were placed into 0.5 L glass jars, along with a filter paper tent (see FIG. 1). In a fume hood, filter paper tents were treated with insecticide dilutions or acetone for controls. The jars were then rapidly closed tightly with a metal lid. After 24 hours of exposure, mortality was scored with the aid of a magnifying glass.
# All test compounds and solvents were >99% purity, and were purchased from Sigma-Aldrich Chemical (Milwaukee, Wis.). See Table 1 for a listing of the test compounds and their structures. Insecticide stock solutions were prepared at a standard concentration of 100 μg/μl in analytical grade acetone. For liquid insecticidal compounds, density in mg/μl was used to calculate weight on a per-volume basis. Stock solutions were held at −20° C. in sealed amber vials. In bioassay jars, filter paper tents were treated with stock volumes ranging from 2 to 20 μl, depending on the inherent toxicity of the test compound. These volumes of insecticide stock provided test concentrations of 200 to 2000 μg insecticide per replicate jar. A range of 4-5 concentrations plus a control were tested for each insecticide, and each range was repeated five times over at least three days. Controls received a volume of acetone identical to the highest insecticide volume that was tested (i.e., 10 μl for menthofuran; 20 μl for all other insecticides). Between uses, bioassay jars and lids were washed in a dishwasher, then baked 12-16 hr at 90° C. in a drying oven.
# Probit and regression analyses were performed using the PROC PROBIT and PROC REG procedures, respectively. […] If control mortality ever exceeded 10% in a given replicate, that replicate was discarded.
# (§1) Four Drosophila strains were used, all obtained from the Bloomington Drosophila Stock Center (Indiana University; Bloomington, Ind.). The Canton-S strain was used as the insecticide-susceptible standard. The Hikone-R strain is metabolically-resistant with elevated cytochrome P450 levels (Waters et al., 1984; Sundseth et al., 1989; Le Goff et al., 2003; Festucci-Buselli et al., 2005). Hikone-R is resistant to a number of insecticides, including malathion, DDT and neonicotinoids (Sundseth et al., 1989; Daborn et al., 2001). Two resistant neurological-mutant strains were also tested. […] Flies were reared in 100-ml vials capped with acetate plugs (Fisher Scientific; Suwanee, Ga.) on a commercial diet (JAZZ-MIX; Fisher Scientific). Flies were reared on a 12:12 photocycle at 24° C. and 60% relative humidity. Mixed-sex adults, less than 1-wk old, were used in bioassays.
# [2] = tested on: Rd1 (Rdl-R) strain of Drosophila (GABA-gated chloride channel point mutation); assay type: in vivo, Drosophila melanogaster; settings: in vivo
# From the text: as §1
# (§2) All experimental materials were purchased from Sigma-Aldrich-Fluka (Milwaukee, Wis.) and were of 99% purity or greater. […] All volatile insecticide stocks were prepared at 100 μg/μl in analytical grade acetone. Rather than weigh the highly volatile liquid insecticides (i.e., all compounds except benzothiophene), weight was determined based on the density-volume relationship of each compound. Four serial dilutions were prepared and tested for each insecticide as described previously (Scharf et al., 2006). The insecticide synergists PBO (piperonyl butoxide) and DEF (SSS-tributyl-phosphoro-trithioate) were obtained from Fluka Chemical Co. (Basel, Switzerland) and Mobay Chemical Co. (Kansas City, Mo.). Both synergists were >95% purity. Synergist stocks were prepared at 100 μg/ml in analytical grade acetone.
# (§3) Volatility bioassays were conducted exactly as described in a previous report (Scharf et al., 2006). Briefly, bioassays took place in 0.5-l glass jars with metal lids. Mixed-sex flies were isolated from lab colonies and placed in 4-ml dram vials in groups of ten, along with a dried piece of laboratory diet. The dram vials were capped with open-top septum caps that were covered with fine mesh (held in place by non-toxic glue). For bioassays, the assembled dram vials were placed into the 0.5-l jars along with a folded filter paper “tent” (Whatman #1; Vineland, N.J.). The filter paper was treated with either an insecticide dilution or acetone, the jar was sealed with the metal lid, and the bioassay proceeded for 24-hr at room temperature. Mortality was scored based on a complete lack of movement by the flies. Four concentrations plus an acetone control were tested for all insecticides. Between five and ten replicates were performed for each concentration range on each strain-insecticide combination. Synergist bioassays were performed with a slight modification. Synergist stocks were applied to dram vials at 100 μl per vial to provide assay concentrations of 10 μg per vial. […] After treatment, vials were held at an angle in a fume hood and rotated ¼-turn each minute until the acetone evaporated. Flies and diet were added as above and held for 1-hr. Assays were initiated, run, and scored as above.
# (§4) Probit analysis was performed using PROC PROBIT in the SAS software package (SAS Institute; Cary, N.C.). If control mortality ever exceeded 10% in a given replicate, that replicate was discarded. Toxicity and synergist ratios at LC50 were compared statistically using the calculation described by Robertson and Preisler (1992). Using this procedure, ratios with 95% confidence intervals were calculated using a spreadsheet-based program. With this calculation, if confidence intervals include 1.0 then ratios are considered non-significant (p>0.05; Robertson and Preisler, 1992).
# [3] = tested on: metabolically-resistant Hikone-R strain of Drosophila (elevated cytochrome P450); assay type: in vivo; settings: for Slope ± Std. Error (probit mortality line): Hikone-R, 24 hr; for response of Hikone-R relative to Canton-S (LC50 ratio Hikone÷Canton, FIG. 5), in words: significance at p<0.05, method of Robertson and Preisler
# Method: (§5) Four Drosophila strains were used, all obtained from the Bloomington Drosophila Stock Center (Indiana University; Bloomington, Ind.). The Canton-S strain was used as the insecticide-susceptible standard. […] Two resistant neurological-mutant strains were also tested. […] Flies were reared in 100-ml vials capped with acetate plugs (Fisher Scientific; Suwanee, Ga.) on a commercial diet (JAZZ-MIX; Fisher Scientific). […] Mixed-sex adults, less than 1-wk old, were used in bioassays.
# (§6) All volatile insecticide stocks were prepared at 100 μg/μl in analytical grade acetone. Rather than weigh the highly volatile liquid insecticides (i.e., all compounds except benzothiophene), weight was determined based on the density-volume relationship of each compound. […] The insecticide synergists PBO (piperonyl butoxide) and DEF (SSS-tributyl-phosphoro-trithioate) were obtained from Fluka Chemical Co. (Basel, Switzerland) and Mobay Chemical Co. (Kansas City, Mo.). […] Synergist stocks were prepared at 100 μg/ml in analytical grade acetone.
# (§7) Briefly, bioassays took place in 0.5-l glass jars with metal lids. Mixed-sex flies were isolated from lab colonies and placed in 4-ml dram vials in groups of ten, along with a dried piece of laboratory diet. The dram vials were capped with open-top septum caps that were covered with fine mesh (held in place by non-toxic glue). For bioassays, the assembled dram vials were placed into the 0.5-l jars along with a folded filter paper “tent” (Whatman #1; Vineland, N.J.). The filter paper was treated with either an insecticide dilution or acetone, the jar was sealed with the metal lid, and the bioassay proceeded for 24-hr at room temperature. Mortality was scored based on a complete lack of movement by the flies. Four concentrations plus an acetone control were tested for all insecticides. Between five and ten replicates were performed for each concentration range on each strain-insecticide combination. Synergist bioassays were performed with a slight modification. Synergist stocks were applied to dram vials at 100 μl per vial to provide assay concentrations of 10 μg per vial. […] After treatment, vials were held at an angle in a fume hood and rotated ¼-turn each minute until the acetone evaporated. Flies and diet were added as above and held for 1-hr. Assays were initiated, run, and scored as above.
# (§8) Probit analysis was performed using PROC PROBIT in the SAS software package (SAS Institute; Cary, N.C.). If control mortality ever exceeded 10% in a given replicate, that replicate was discarded.
# [4] = tested on: para-ts1 (para-R) strain of Drosophila (sodium channel point mutation); assay type: in vivo; settings: significance at p<0.05, method of Robertson and Preisler
# Method: as §5, §6, §7, §8
# [5] = tested on: metabolically resistant Hikone-R strain of Drosophila; assay type: in vivo; settings: Hikone, FIG. 6
# Method: as §2, §3, §4
# [6] = tested on: insecticide-susceptible Canton-S strain of Drosophila; assay type: in vivo
# Method: as §2, §3, §4
SMILES,LC50 (95% CL) [1],"response of Rd1 relative to Canton-S (LC50 ratio, FIG. 7A), in words [2]",Slope ± Std. Error (probit mortality line) ([3]; Table 2),"Slope ± Std. Error (probit mortality line) ([3]; Table 3, no synergist)","response of Hikone-R relative to Canton-S (LC50 ratio Hikone÷Canton, FIG. 5), in words [3]","response of para-ts1 relative to Canton-S (LC50 ratio, FIG. 7B), in words [4]","response of Hikone-R relative to Canton-S (LC50 ratio Hikone÷Canton, FIG. 5), in words ([3]; listed as mentho-)","response of Hikone-R relative to Canton-S (LC50 ratio Hikone÷Canton, FIG. 5), in words ([3]; listed as menthofuran)","effect of PBO treatment on toxicity, in words [5]",efficacy level when mixed with the P450 inhibitor PBO ([6]; 'levels on the same scale' as MITC and DDVP) [µg/L],"effect of PBO treatment on toxicity, in words ([6]; Canton-S, FIG. 6)"
"CC(C)(C)OC=O [t-Butyl Formate, tert-butyl formate]",1981.0 (1917.0 − 2048.4) μg/jar,significant resistance; also recorded: significant tolerance,44.70,44.70,non-significant tolerance,elevated tolerance; also recorded: significant tolerance,,,,,
"Cc1coc2c1CC[C@H](C)C2 [Menthofuran, menthofuran]",,significantly enhanced susceptibility,4.12 ± 0.45,4.12 ± 0.45,,enhanced susceptibility,significantly enhanced susceptibility,significantly more susceptible; also recorded: greater susceptibility; also recorded: enhanced susceptibility,no effects,< 100,increased menthofuran toxicity
"CCCOC=O [Propyl Formate, propyl formate]",1833.0 (1787.0 − 1884.0) μg/jar,significant resistance,7.43 ± 1.26,7.43 ± 1.26,,non-significant tolerance,,,,,
"CCCCCCOC=O [Hexyl Formate, hexyl formate]",,non-significant tolerance,3.26 ± 0.65,3.26 ± 0.65,non-significant tolerance,non-significant tolerance,,,,,
"c1ccc2sccc2c1 [Benzothiophene, benzothiophene]",,significantly enhanced susceptibility,4.42 ± 0.46,4.42 ± 0.46,significantly enhanced susceptibility; also recorded: greater susceptibility,enhanced susceptibility,,,,,
